Consider two compounds from US20250326815A1, “STAPLE-CONTAINING POLYPEPTIDES AND APPLICATION THEREOF” (Soter Biopharma Pte. Ltd., priority 2021, published 2025).

The EC50 is the concentration needed to bring the measured effect to its halfway point. For orientation: Tmax means the time at which the peak concentration occurs.

In one series the target is T1, GLP-1R (Homo sapiens, UniProt P43220).
T1 construct: host or cells: HEK293
The series is described as follows: In vitro agonistic activity on GLP-1R (cAMP assay). The format is cell-based. As to conditions: HEK293 cell line; for Agonistic activity on GLP-1R Max Activity (%): Max Dose 20 nM. The procedure:
(§1) The cell lines were constructed by Shanghai WuXi AppTec.
(§2) The compounds to be assayed were serially diluted 4-fold with Bravo to obtain 10 concentrations, with a starting concentration of 30 μM.
(§3) 1) 100 nL of the compound was transferred to an OptiPlate-384 plate using Echo.
(§4) 2) The OptiPlate-384 plate was centrifuged at 1000 rpm for 5 seconds.
(§5) 1) A GLP-1R/GIPR/GCGR cell cryopreservation tube was quickly placed in warm water at 37° C. to thaw.
(§6) 2) The cell suspension was transferred to a 15 mL centrifuge tube, and gently washed with 10 ml of HBSS.
(§7) 3) The centrifuge tube was centrifuged at 1000 rpm at room temperature for 1 minute.
(§8) 4) The supernatant was discarded.
(§9) 5) The cells at the bottom were gently dispersed and gently washed with 10 ml of HBSS. The cells were centrifuged and sedimented, and finally resuspended with the assay buffer.
(§10) 6) Vi-cell was used to measure the cell density and viability.
(§11) 7) The concentration of GLP-1R/GIPR/GCGR cells was diluted to 2.0*105/mL with the assay buffer.
(§12) 8) […] of the diluted cell suspension was transferred to the OptiPlate-384 plate.
(§13) 9) The plate was incubated at room temperature for 30 minutes.
(§14) 1) 10 μL of 800 nM gradient diluted cAMP standard was added into an empty well of the OptiPlate-384 plate.
(§15) 2) 10 μL of cAMP assay reagent was added.
(§16) 3) The OptiPlate-384 plate was covered with a TopSeal-A film and incubated at room temperature for 60 minutes.
(§17) The TopSeal-A was peeled off and the plate was read on the EnVision.
On the technique in general: Cyclic AMP is a second messenger, typically raised through Gs and lowered through Gi signalling.

The next series deals with DIO mice. Nature of the series: Drug efficacy study in DIO mice (weight loss). The class given is in vivo. As to conditions: 10 nmol/kg subcutaneous, once every three days. The procedure:
The weight loss effect of the assay compound in DIO mice was studied.
1. After arriving at the facility, the DIO mice were raised in an animal breeding room with strictly controlled environmental conditions. The temperature in the breeding room was maintained at 20 to 24° C., and the humidity was maintained at 30 to 70%. The temperature and humidity in the breeding room were monitored in real time using a thermo-hygrometer, and the temperature and humidity were recorded twice a day (once in the morning and once in the afternoon). The lighting in the animal breeding room was controlled by an electronic timed lighting system. The lights were on for 12 hours and off for 12 hours every day (turned on at 7:00 am and turned off at 19:00 pm). During the assay, the animals were raised in individual cages and toys were provided in each cage. During the assay, the animals had free access to food (growth/breeding feed for rats and mice) and water.
2. The animals in each group were subcutaneously injected with a solvent or an assay compound (10 nmol/kg), respectively. The administration time was 9:30 in the morning. The administration frequency was once every three days, and the administration cycle was 21 days.

For another series, the system named is mouse plasma albumin. Nature of the series: Plasma protein binding (PPB), mouse. The settings on record: ultracentrifugation. Also noted: key: NA indicates that the plasma protein binding is too high, and no free drug is detected at a normal plasma protein concentration. The class given is in vitro ADME. The procedure:
The binding degree of the assay compound to human/mouse plasma albumin was studied.
1. Matrix preparation: on the day of the assay, plasma was thawed in cold water and centrifuged at 3220 rpm for 5 min to remove all clots. The pH of the resulting plasma was measured and adjusted to 7.4±0.1 using 1% phosphoric acid or IN sodium hydroxide as needed.
2. Dilution procedure for the assay compound: the assay compound was dissolved in dimethyl sulfoxide (DMSO) to prepare stock solutions with concentrations of 10 mM and 2 mM, respectively. A 40 μM working solution was prepared by diluting 2 μL of stock solution (2 mM) with 98 μL of DMSO. A 400 μM working solution of the control compound was prepared by diluting 10 μL of stock solution with 240 μL of DMSO. The working solution of the compound (5 μL) was mixed well with a blank matrix (995 μL) at a ratio of 1:200 to prepare a loading matrix.
3.1 An equal volume of 30 μL of loading matrix (n=2) was transferred to a sample collection plate to prepare a time 0 (T0) sample for residue determination. […]
3.4 At the end of centrifugation, 30 μL of protein-free samples and 30 μL of T samples were transferred from the second layer of the supernatant (below the top layer) to a new sample collection plate. […] The mixture was centrifuged at 4000 rpm for 20 min and 100 μL of supernatant from each sample was analyzed by LC-MS/MS.

The nature of series [1]: Pharmacokinetic evaluation in cynomolgus monkeys. The class given is in vivo. As to conditions: cynomolgus monkey, plasma, 0.02 mg/kg, single SC 0.02 mpk; for half-life: read-out: Half-life T1/2 (converted); for AUC(0-t): read-out: Integral of the SC concentration AUC0-240 h; for Cmax: read-out: Maximum plasma concentration. The procedure:
Pharmacokinetics of the compound in cynomolgus monkeys were assayed.
The pharmacokinetic characteristics of the compound in mammals after a subcutaneous injection were assayed using the standard protocol. In the assay, the candidate compound was formulated into a clear solution and given to cynomolgus monkeys by a single subcutaneous injection (SC, 0.02 mpk). The solvent of the subcutaneous injection was citrate buffer (20 mM, pH=7). Whole blood was collected, and plasma was prepared. Drug concentration was analyzed by LC-MS/MS method, and pharmacokinetic parameters were calculated using Phoenix WinNonlin software.

Another series concerns the target T2, GCGR (Homo sapiens, UniProt P47871).
T2 construct: host or cells: HEK293
The series is described as follows: In vitro agonistic activity on GCGR (cAMP assay). The format is cell-based. As to conditions: HEK293 cell line; for Agonistic activity on GCGR Max Activity (%): Max Dose 100 nM. The procedure:
as §1, §2, §3, §4, §5, §6, §7, §8, §9, §10, §11, §12, §13, §14, §15, §16, §17

T1 sequence (P43220 24-463, species assumed): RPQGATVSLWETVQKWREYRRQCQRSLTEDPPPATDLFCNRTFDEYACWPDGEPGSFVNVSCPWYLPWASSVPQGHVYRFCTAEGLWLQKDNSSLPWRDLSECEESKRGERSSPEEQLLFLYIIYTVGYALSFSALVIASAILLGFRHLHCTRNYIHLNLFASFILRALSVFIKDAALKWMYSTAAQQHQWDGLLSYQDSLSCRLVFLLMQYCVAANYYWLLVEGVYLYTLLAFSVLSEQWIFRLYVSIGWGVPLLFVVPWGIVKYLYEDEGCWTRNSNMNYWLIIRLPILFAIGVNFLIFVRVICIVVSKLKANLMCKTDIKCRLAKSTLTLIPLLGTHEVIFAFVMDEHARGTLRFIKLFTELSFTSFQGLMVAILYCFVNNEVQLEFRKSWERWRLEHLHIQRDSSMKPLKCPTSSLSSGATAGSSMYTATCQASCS
T2 sequence (P47871 26-477, species assumed): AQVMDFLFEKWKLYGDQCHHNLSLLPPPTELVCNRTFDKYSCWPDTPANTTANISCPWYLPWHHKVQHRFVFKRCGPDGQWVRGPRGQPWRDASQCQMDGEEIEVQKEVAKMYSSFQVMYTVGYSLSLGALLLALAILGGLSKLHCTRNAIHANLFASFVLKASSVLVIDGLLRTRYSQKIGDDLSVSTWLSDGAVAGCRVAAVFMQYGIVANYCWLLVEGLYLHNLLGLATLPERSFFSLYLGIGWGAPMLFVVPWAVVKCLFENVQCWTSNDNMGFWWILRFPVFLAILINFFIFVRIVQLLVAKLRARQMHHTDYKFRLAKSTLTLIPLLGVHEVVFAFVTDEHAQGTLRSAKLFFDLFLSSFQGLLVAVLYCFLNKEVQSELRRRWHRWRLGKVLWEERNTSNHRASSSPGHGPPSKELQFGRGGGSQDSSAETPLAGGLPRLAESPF

With `CC(C)C[C@H](NC(=O)[C@H](CC(C)C)NC(=O)[C@H](Cc1c[nH]c2ccccc12)NC(=O)[C@@H]1CCCCNC(=O)CN(C(=O)COCCOCCNC(=O)COCCOCCNC(=O)CC[C@H](NC(=O)CCCCCCCCCCCCCCCCCCC(=O)O)C(=O)O)CC(=O)NCCCC[C@H](NC(=O)[C@H](C)NC(=O)[C@H](CCCCN)NC(=O)[C@H](CCCCN)NC(=O)[C@H](CCC(=O)O)NC(=O)[C@H](CC(=O)O)NC(=O)[C@H](CC(C)C)NC(=O)[C@H](Cc2ccc(O)cc2)NC(=O)[C@H](CCCCN)NC(=O)[C@H](CO)NC(=O)[C@H](Cc2ccc(O)cc2)NC(=O)[C@H](CC(=O)O)NC(=O)[C@H](CO)NC(=O)[C@@H](NC(=O)[C@H](Cc2ccccc2)NC(=O)[C@@H](NC(=O)CNC(=O)[C@H](CCC(N)=O)NC(=O)C(C)(C)NC(=O)[C@@H](N)Cc2c[nH]cn2)[C@@H](C)O)[C@@H](C)O)C(=O)N[C@@H](CCC(=O)O)C(=O)N[C@@H](Cc2ccccc2)C(=O)N[C@@H](C(C)C)C(=O)N1)C(=O)N[C@@H](CCC(=O)O)C(=O)NCC(=O)NCC(=O)N1CCC[C@H]1C(=O)N[C@@H](CO)C(=O)N[C@@H](CO)C(=O)NCC(N)=O` [WX004], at GLP-1R, a half-maximal effect (EC50) was put at 0.0446 nM and the “Agonistic activity on GLP-1R Max Activity (%)” value is 85.77%. The “ΔBody weight % (comparison of the body weight after 21 days with the body weight on day 1)” value in the series on DIO mice is reported as −31.89%. For the same compound, the “PPB % unbound (mouse)” value with mouse plasma albumin is on record as “NA/NA”. Further, in series [1], the time to peak (Tmax) was found to be 32 h, the half-life was 67 h, the AUC(0-t) came to 5.72 µM·h and the Cmax was determined as 0.048 µM. At GCGR, the EC50 amounted to 0.0531 nM and the “Agonistic activity on GCGR Max Activity (%)” value was determined as 68.62%.
Take `CC(C)C[C@H](NC(=O)[C@H](CC(C)C)NC(=O)[C@H](Cc1c[nH]c2ccccc12)NC(=O)[C@H](CCC(=O)O)NC(=O)[C@@H](NC(=O)[C@H](Cc1ccccc1)NC(=O)[C@H](CCC(=O)O)NC(=O)[C@@H]1CCCCNC(=O)CN(C(=O)COCCOCCNC(=O)COCCOCCNC(=O)CC[C@H](NC(=O)CCCCCCCCCCCCCCCCCCC(=O)O)C(=O)O)CC(=O)NCCCC[C@H](NC(=O)[C@H](CCC(=O)O)NC(=O)[C@H](CC(=O)O)NC(=O)[C@H](CC(C)C)NC(=O)[C@H](Cc2ccc(O)cc2)NC(=O)[C@H](CCCCN)NC(=O)[C@H](CO)NC(=O)[C@H](Cc2ccc(O)cc2)NC(=O)[C@H](CC(=O)O)NC(=O)[C@H](CO)NC(=O)[C@@H](NC(=O)[C@H](Cc2ccccc2)NC(=O)[C@@H](NC(=O)CNC(=O)[C@H](CCC(N)=O)NC(=O)C(C)(C)NC(=O)[C@@H](N)Cc2c[nH]cn2)[C@@H](C)O)[C@@H](C)O)C(=O)N[C@@H](CCCCN)C(=O)N[C@@H](C)C(=O)N1)C(C)C)C(=O)N[C@@H](CCC(=O)O)C(=O)NCC(=O)NCC(=O)N1CCC[C@H]1C(=O)N[C@@H](CO)C(=O)N[C@@H](CO)C(=O)NCC(N)=O` [WX001]: on GLP-1R, a half-maximal response (EC50) required 0.0227 nM and the “Agonistic activity on GLP-1R Max Activity (%)” value is on record as 122.64%. Also, in the series on DIO mice, the “ΔBody weight % (comparison of the body weight after 21 days with the body weight on day 1)” value is on record as −28.91%. Also, in the series on mouse plasma albumin, the “PPB % unbound (mouse)” value was “NA/NA”. In series [1], the time to peak (Tmax) was 24 h, the half-life was 93 h, the AUC(0-t) is 5.51 µM·h and the Cmax was 0.043 µM. At GCGR, a half-maximal effect (EC50) was put at 0.0267 nM and the “Agonistic activity on GCGR Max Activity (%)” value was 98.93%.
